Read-outs that look alike come from different tables or passages of the source. Residues, ends and D or L forms follow the SMILES beside them. No end group written: not given here.
Columns and labels:
[1] = test system: TNF-induced cytotoxicity, L929 cells; test: Inhibition of cytotoxic activity of TNF on L929 cells; assay type: cell-based; conditions: TNF 1 nM, peptide 10 nM, n = 5, TNF preincubated with TNFR1 peptide / cells preincubated with TNFL; for apoptotic cytotoxic activity of TNF in the presence of peptide: 3 h; for necroptotic cytotoxic activity of TNF in the presence of peptide: 20 h
Description: (§1) Next, we investigated how this interaction affects the cytotoxic activity of TNFR1 ligands. […] Cell apoptosis is a fast process of several hours. During necroptosis, cell death processes take place after a few dozen hours. Taking into account this ability of TNFR1 to participate in the induction of alternative cytotoxic pathways that develop at different time intervals, cytotoxic activity was determined after 3 h and after 20 h (Figure 4). […] It can be assumed that the inhibition of the cytotoxic effect of the ligands is associated with the competition of a 12-membered peptide with the cell surface receptor on for binding to the ligands.

[2] = test system: Tag7–Hsp70-induced cytotoxicity, L929 cells; test: Inhibition of cytotoxic activity of Tag7–Hsp70 complex on L929 cells; assay type: cell-based; conditions: Tag7–Hsp70 1 nM, peptide 10 nM, n = 5, complex preincubated with TNFR1 peptide / cells preincubated with TNFL; for apoptotic cytotoxic activity of Tag7–Hsp70 complex in the presence of peptide: 3 h; for necroptotic cytotoxic activity of Tag7–Hsp70 complex in the presence of peptide: 20 h
Description: as §1

Tag7 = molecular target: T1, Tag7 (Homo sapiens, UniProt O75594); test: Microscale thermophoresis, binding to fluorescent-labeled Tag7; conditions: ratio to previously shown Kd of Tag7–sTNFR1 (42.2)
T1 construct: His tag (inferred from the pQE-31 vector only); made in house; host or cells: E. coli M15 (pREP4)
T1 sequence (O75594 22-196): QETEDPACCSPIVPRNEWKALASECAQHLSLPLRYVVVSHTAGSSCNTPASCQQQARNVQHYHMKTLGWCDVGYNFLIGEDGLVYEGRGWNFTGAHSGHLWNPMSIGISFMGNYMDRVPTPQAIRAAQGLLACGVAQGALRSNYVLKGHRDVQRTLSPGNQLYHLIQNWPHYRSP
Excerpt: The calculated Kd indicates a high affinity among the studied complexes (Table 1).
Graphs are represented as Fnorm [‰] against ligand concentration. Data represent three independent experiments and were fitted to a Kd binding model assuming a 1:1 binding stoichiometry.
Hsp70 and TNF-α were purified with Ni-NTA Agarose (Thermo Fisher Scientific, Waltham, MA, USA) in accordance with the manufacturer’s instructions.
The samples were transferred to glass capillaries (Monolith NT Capillaries) and analyzed by microscale thermophoresis on a Nano-Temperature Monolith NT 115 device (30% IR laser power). The signal quality was monitored using a NanoTemper Monolith device to detect possible autofluorescence of the ligand, aggregation or changes in the rate of photobleaching. The experiments were carried out in at least three repetitions and processed using affinity analysis software (MO Control v.1.6.1, NanoTemper Technologies GmbH, München, Germany).

sTNFR1 = conditions: read-out: Kd value for the Tag7–sTNFR1 complex; "Previously, we showed"; cited from earlier work
[3] = test system: tumor cells / cancer cells; conditions: ref [33]; cited from earlier work
Excerpt: The amino acid sequence of Tag7 seemingly lacks a peptide fragment interacting with the second site of the receptor.

tumor = conditions: ref [33]; cited from earlier work
Excerpt: Modifications of the TNF molecule are used to solve it.

L929 cells [4] = test system: L929 cells
Description: (§2) The TNFR1 antibodies were added to the sum of TNFL and TNFS peptides prior to incubation (a). Cytotoxic activity of the sum of TNFL and TNFS peptides on L929 cells after 3 (b) and 20 (c) hours in the presence of caspase 3 and 8 inhibitors (5 μM) and necrostatin1 (5 μM) is shown. (d) Cytotoxic activity of the sum of TNFL and TNFs peptides on L929 cells after 20 h of incubation in the presence of calpains inhibitors (10 μM), cathepsins inhibitors (10 μM) and antioxidant (1 μM). n = 5 for each point, (* p-value < 0.05).
(§3) L929 cells were cultured in DMEM with 2 mm L-glutamine and 10% FCS (Invitrogen, Carlsbad, CA, USA). This cell line was obtained from the cell line collection of the N. N. Blokhin National Medical Research Center of Oncology of the Ministry of Health of Russia.
(§4) For cytotoxicity tests, target cells were cultured in 96-well plates (3 × 10^4 cells per well), and cytotoxic complexes were added (1 nM). Cytotoxicity was measured after 20 h of incubation by Cytotox 96 analysis kit (Promega, Madison, WI, USA) in accordance with the manufacturer’s protocol. […]

L929 cells [5] = test: Cytotoxic activity of TNF peptides on L929 cells; conditions: 20 h, n = 5, Cytotox 96 kit
Description: as §2, §3, §4

Row | Compound | apoptotic cytotoxic activity of TNF in the presence of peptide [1] | necroptotic cytotoxic activity of TNF in the presence of peptide [1] | apoptotic cytotoxic activity of Tag7–Hsp70 complex in the presence of peptide [2] | necroptotic cytotoxic activity of Tag7–Hsp70 complex in the presence of peptide [2] | Kd of Tag7–TNFR1 peptide complex compared with Kd of Tag7–sTNFR1 complex (Tag7) | Kd (sTNFR1) [nM] | killing of tumor cells [3] | inhibition of tumor growth / metastasis (tumor) | cytotoxic activity (L929 cells [4]) | cytotoxic activity (L929 cells [5])
1 | CC(C)C[C@H](NC(=O)[C@H](CS)NC(=O)[C@H](Cc1c[nH]cn1)NC(=O)[C@H](CCCNC(=N)N)NC(=O)[C@H](CC(C)C)NC(=O)[C@H](Cc1c[nH]cn1)NC(=O)[C@@H](N)CC(N)=O)C(=O)N[C@@H](CO)C(=O)N[C@@H](CS)C(=O)N[C@@H](CO)C(=O)N[C@@H](CCCCN)C(=O)N[C@@H](CS)C(=O)O [TNFR1 peptide] (H-NHLRHCLSCSKC-OH) | completely lose both apoptotic and necroptotic activity | completely lose both apoptotic and necroptotic activity | completely lose both apoptotic and necroptotic activity | completely lose both apoptotic and necroptotic activity | approximately 10 times lower |  |  |  |  | 
2 | Tag7: recombinant human Tag7, innate immunity protein, TNFR1 ligand |  |  |  |  |  | 42.2 |  |  |  | 
3 | TNF peptide (aa. 150–170): TNF peptide (aa. 150–170), capable of killing tumor cells and inhibiting tumor growth (VLLTHTISRIAVSYQTKVNLL; UniProt P01375 150-170, looked up, fragment) |  |  |  |  |  |  | capable of killing tumor cells | inhibiting tumor growth |  | 
4 | NPQAEGQLQWLNRRAN [TNFL peptide] | Both apoptosis (3 h) and necroptosis (20 h) were inhibited | Both apoptosis (3 h) and necroptosis (20 h) were inhibited | Both apoptosis (3 h) and necroptosis (20 h) were inhibited | Both apoptosis (3 h) and necroptosis (20 h) were inhibited |  |  |  |  | no cytotoxic effect | 
5 | YVLLTH [TNFS peptide] | does not inhibit apoptosis nor necroptosis | does not inhibit apoptosis nor necroptosis | does not inhibit apoptosis nor necroptosis | does not inhibit apoptosis nor necroptosis |  |  |  |  |  | no cytotoxic effect

Reference: paper PMC11011327 (International Journal of Molecular Sciences, 2024)
